Source: patent publication US8785184B2, “Differentiation of human embryonic stem cells” (Janssen Biotech, Inc., priority 2009, dated 2014)

Experiments:
[1] = system: human embryonic stem cells line H1; details: stage 4 day 3
Protocol: (§1) Briefly, cells of the human embryonic stem cells line H1 were cultured on […]™ coated dishes (1:30 dilution) with RPMI medium+2% BSA+100 ng/ml activin A+20 ng/ml WNT-3a+8 ng/ml of bFGF for one day followed by treatment with RPMI media+2% BSA+100 ng/ml activin A+8 ng/ml of bFGF for an additional two days (Stage 1), then • a. DMEM/F12+2% BSA+50 ng/ml FGF7 for three days (Stage 2), then • b. DMEM-High glucose+1% B27+50 ng/ml FGF7+0.25 μM Cyclopamine-KAAD+2 μM Retinoic acid (RA)+100 ng/ml of Noggin+20 ng/ml Activin A for four days (Stage 3), then • c. DMEM-High glucose+1% B27+100 ng/ml Noggin+1 μM ALK5 inhibitor II for three days (Stage 4), or • d. DMEM-High glucose+1% B27 only for three days (Stage 4).
Pancreatic endocrine precursor cells express NGN3.

[2] = system: human embryonic stem cell line H1; test: Immunofluorescence analysis of cultures at stage 3 day 4 (Example 1); format: cell-based
Protocol: (§2) Cells of the human embryonic stem cell line H1 were cultured on MATRIGEL-coated plates (1:30 dilution), and differentiated into pancreatic endocrine precursor cells using the following protocol: • a.
(§3) Cultures were sampled in duplicate on stage 3 day 4, and analyzed for expression of pancreatic markers using real-time PCR. Cultures also were fixed in parallel for immunofluorescence analysis.

[3] = system: human embryonic stem cells line H1; details: stage 4; immunocytochemistry (FIG. 6)
Protocol: as §1

[4] = system: human embryonic stem cell line H1; test: Real-time PCR of pancreatic markers at stage 3 day 4 (Example 1); format: cell-based
Protocol: Cultures were sampled in duplicate on stage 3 day 4, and analyzed for the expression of pancreatic markers using real-time PCR.
as §2, §3

[5] = 1 μM ALK5 inhibitor II + 100 ng/ml Noggin vs basal medium (FIG. 5)
[6] = 1 μM ALK5 inhibitor II + 100 ng/ml Noggin vs basal medium (FIG. 5 panel b)
[7] = replacement of activin A in treatment 2, four days, stage 3 day 4 (FIG. 4)

Cc1cccc(-c2[nH]ncc2-c2ccc3ncccc3n2)n1 [Alk5 inhibitor II, ALK5 inhibitor II]
NGN3 expression [1, 5]: significant increase | expression of NEUROD [1, 5]: up regulation | expression of NKX2.2 [1, 5]: up regulation | expression of PAX4 [1, 5]: up regulation | expression of PAX6 [1, 5]: up regulation | expression of PTF1 alpha [1, 5]: increase | expression of NKX6.1 [1, 6]: did not appear to affect | expression of PDX1 [1, 6]: did not appear to affect | number of NGN3 expressing cells ([2]; 1 μM ALK5 inhibitor II added to treatment 1 (Table 1, FIG. 2 panel f)): significantly increased | number of cells positive for NGN3 protein [3]: increase | PDX1 expression ([4]; stage 3 day 4, 1 μM ALK5 inhibitor II added to treatment 1): No significant impact | level of expression of NKX6.1 ([4]; stage 3 day 4, 1 μM ALK5 inhibitor II added to treatment 1, compared with treatment 1): decrease

GDF-8
PDX1 expression [4, 7]: No significant impact | expression of NGN3 [4, 7]: down-regulation | expression of NKX6.1 [4, 7]: increase

B1: activin A (protein, UniProt P08476 311-426, looked up)
Inhibin beta A chain: GLECDGKVNICCKKQFFVSFKDIGWNDWIIAPSGYHANYCEGECPSHIAGTSGSSLSFHSTVINHYRMRGHSPFANLKSCCVPTKLRPMSMLYYDDGQNIIKKDIQNMIVEECGCS
modifications: Inhibin beta A chain
notes: TGFβ receptor agonist (R&D Systems)
expression of NGN3 ([2]; immunofluorescence (FIG. 2)): blocked the expression | number of NKX6.1 expressing cells ([2]; immunofluorescence (FIG. 2), 20 ng/ml activin A added to treatment 1): significantly increased | NGN3 expression ([4]; stage 3 day 4, 20 or 50 ng/ml activin A with FGF7, cyclopamine-KAAD, retinoic acid, Noggin (FIG. 1)): down-regulation | NKX6.1 expression ([4]; stage 3 day 4, 20 or 50 ng/ml activin A with FGF7, cyclopamine-KAAD, retinoic acid, Noggin, compared to cells receiving no activin A (FIG. 1)): dramatic increase

B2: GDF-11 (protein, UniProt O95390 299-407, looked up)
Growth/differentiation factor …: NLGLDCDEHSSESRCCRYPLTVDFEAFGWDWIIAPKRYKANYCSGQCEYMFMQKYPHTHLVQQANPRGSAGPCCTPTKMSPINMLYFNDKQQIIYGKIPGMVVDRCGCS
notes: TGFβ receptor agonist
PDX1 expression [4, 7]: No significant impact | expression of NGN3 [4, 7]: down-regulation | expression of NKX6.1 [4, 7]: increase

B3: activin B (protein, UniProt P09529 293-407, looked up)
Inhibin beta B chain: GLECDGRTNLCCRQQFFIDFRLIGWNDWIIAPTGYYGNYCEGSCPAYLAGVPGSASSFHTAVVNQYRMRGLNPGTVNSCCIPTKLSTMSMLYFDDEYNIVKRDVPNMIVEECGCA
modifications: Inhibin beta B chain
notes: TGFβ receptor agonist
PDX1 expression [4, 7]: No significant impact | expression of NGN3 [4, 7]: down-regulation | expression of NKX6.1 [4, 7]: increase

B4: TGFβ2 (protein, UniProt P61812 303-414, looked up)
Transforming growth factor …: ALDAAYCFRNVQDNCCLRPLYIDFKRDLGWKWIHEPKGYNANFCAGACPYLWSSDTQHSRVLSLYNTINPEASASPCCVSQDLEPLTILYYIGKTPKIEQLSNMIVKSCKCS
notes: TGFβ receptor agonist
PDX1 expression [4, 7]: No significant impact | expression of NGN3 [4, 7]: down-regulation | expression of NKX6.1 [4, 7]: increase
